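96-well plates; 48 h exposure; 5 concentrations. Endpoints by linear interpolation between flanking doses. Not reached: highest tested concentration assigned. Here, GI50 denotes the concentration required for 50% inhibition of growth. Definition used: TGI = concentration required for complete inhibition of growth.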
What was measured:
Test in all cases: NCI tumour cell line growth inhibition, 48 h
UACC-62 melanoma = system: UACC-62 melanoma
CAKI-1 renal = system: CAKI-1 renal
A498 renal = system: A498 renal
HL-60(TB) leukemia = system: HL-60(TB) leukemia
K-562 leukemia = system: K-562 leukemia
MALME-3M melanoma = system: MALME-3M melanoma
OVCAR-8 ovarian = system: OVCAR-8 ovarian
ACHN renal = system: ACHN renal
U251 CNS = system: U251 CNS
OVCAR-3 ovarian = system: OVCAR-3 ovarian
OVCAR-4 ovarian = system: OVCAR-4 ovarian
SNB-19 CNS = system: SNB-19 CNS
MDA-MB-468 breast = system: MDA-MB-468 breast
HOP-92 NSCLC = system: HOP-92 NSCLC
A549 NSCLC = system: A549 NSCLC
SK-MEL-28 melanoma = system: SK-MEL-28 melanoma
MDA-MB-231 breast = system: MDA-MB-231 breast
NCI-H23 lung = system: NCI-H23 lung
CCRF-CEM leukemia = system: CCRF-CEM leukemia
SNB-75 CNS = system: SNB-75 CNS
HCT-15 colon = system: HCT-15 colon
NCI-H226 lung = system: NCI-H226 lung
NCI-H460 lung = system: NCI-H460 lung
SF-268 CNS = system: SF-268 CNS
MOLT-4 leukemia = system: MOLT-4 leukemia
HS 578T breast = system: HS 578T breast
RPMI-8226 leukemia = system: RPMI-8226 leukemia
SF-295 CNS = system: SF-295 CNS
SW-620 colon = system: SW-620 colon
SF-539 CNS = system: SF-539 CNS
MCF7 breast = system: MCF7 breast
LOX IMVI melanoma = system: LOX IMVI melanoma
SK-MEL-2 melanoma = system: SK-MEL-2 melanoma
HCT-116 colon = system: HCT-116 colon
KM12 colon = system: KM12 colon
SK-OV-3 ovarian = system: SK-OV-3 ovarian
DU-145 prostate = system: DU-145 prostate
MDA-MB-435 = system: MDA-MB-435
HCC-2998 colon = system: HCC-2998 colon
PC-3 prostate = system: PC-3 prostate
BT-549 breast = system: BT-549 breast
IGROV1 ovarian = system: IGROV1 ovarian
NCI-H522 lung = system: NCI-H522 lung
SN12C renal = system: SN12C renal
UACC-257 melanoma = system: UACC-257 melanoma
UO-31 renal = system: UO-31 renal
SK-MEL-5 melanoma = system: SK-MEL-5 melanoma
NCI/ADR-RES ovarian = system: NCI/ADR-RES ovarian
M14 melanoma = system: M14 melanoma
786-0 renal = system: 786-0 renal
HT29 colon = system: HT29 colon
OVCAR-5 ovarian = system: OVCAR-5 ovarian
TK-10 renal = system: TK-10 renal
EKVX NSCLC = system: EKVX NSCLC
HOP-62 NSCLC = system: HOP-62 NSCLC
T-47D breast = system: T-47D breast
RXF 393 renal = system: RXF 393 renal
COLO 205 colon = system: COLO 205 colon
SR leukemia = system: SR leukemia

## CN(C)c1nc(NCCNS(=O)(=O)c2ccc(C(=O)/C=C/c3ccc(F)cc3)cc2)nc(Nc2ccc(F)cc2)n1
UACC-62 melanoma
  GI50: 3.57 µM
  TGI: 14.6 µM
CAKI-1 renal
  GI50: 3.01 µM
  TGI: 12.7 µM
A498 renal
  GI50: 6.21 µM
  TGI: 19.3 µM
HL-60(TB) leukemia
  GI50: 2.04 µM
  TGI: 6.34 µM
K-562 leukemia
  GI50: 2.42 µM
  TGI: 6.8 µM
MALME-3M melanoma
  GI50: 3.42 µM
  TGI: 12.4 µM
OVCAR-8 ovarian
  GI50: 3.42 µM
  TGI: 13.9 µM
ACHN renal
  GI50: 3.13 µM
  TGI: 10.9 µM
U251 CNS
  GI50: 1.99 µM
  TGI: 4.41 µM
OVCAR-3 ovarian
  GI50: 1.74 µM
  TGI: 3.24 µM
OVCAR-4 ovarian
  GI50: 3.68 µM
  TGI: 15.6 µM
SNB-19 CNS
  GI50: 4.58 µM
  TGI: 16.8 µM
MDA-MB-468 breast
  GI50: 2.55 µM
  TGI: 8.09 µM
HOP-92 NSCLC
  GI50: 2.49 µM
  TGI: 6.51 µM
A549 NSCLC
  GI50: 3.41 µM
  TGI: 14.2 µM
SK-MEL-28 melanoma
  GI50: 3.6 µM
  TGI: 13.7 µM
MDA-MB-231 breast
  GI50: 2.64 µM
  TGI: 8.38 µM
NCI-H23 lung
  GI50: 4.17 µM
  TGI: 15.6 µM
CCRF-CEM leukemia
  GI50: 3.42 µM
  TGI: > 100 µM
SNB-75 CNS
  GI50: 2.88 µM
  TGI: 16 µM
HCT-15 colon
  GI50: 1.99 µM
  TGI: 4.28 µM
NCI-H226 lung
  GI50: 3.41 µM
  TGI: 16.4 µM
NCI-H460 lung
  GI50: 2.45 µM
  TGI: 6.92 µM
SF-268 CNS
  GI50: 3.89 µM
  TGI: 16.4 µM
MOLT-4 leukemia
  GI50: 2.5 µM
  TGI: 6.5 µM
HS 578T breast
  GI50: 6.3 µM
  TGI: 71.5 µM
RPMI-8226 leukemia
  GI50: 2.42 µM
  TGI: 6.92 µM
SF-295 CNS
  GI50: 3.4 µM
  TGI: 13 µM
SW-620 colon
  GI50: 1.9 µM
  TGI: 4.02 µM
SF-539 CNS
  GI50: 2.52 µM
  TGI: 6.78 µM
MCF7 breast
  GI50: 1.8 µM
  TGI: 3.46 µM
LOX IMVI melanoma
  GI50: 1.66 µM
  TGI: 3.07 µM
SK-MEL-2 melanoma
  GI50: 2.77 µM
  TGI: 8.31 µM
HCT-116 colon
  GI50: 1.6 µM
  TGI: 3.01 µM
KM12 colon
  GI50: 2 µM
  TGI: 4.41 µM
SK-OV-3 ovarian
  GI50: 8.23 µM
  TGI: 21.6 µM
DU-145 prostate
  GI50: 3.94 µM
  TGI: 14 µM
MDA-MB-435
  GI50: 2.32 µM
  TGI: 5.69 µM
HCC-2998 colon
  GI50: 1.8 µM
  TGI: 3.45 µM
PC-3 prostate
  GI50: 2.76 µM
  TGI: 10.6 µM
BT-549 breast
  GI50: 4.87 µM
  TGI: 17.1 µM
IGROV1 ovarian
  GI50: 4.27 µM
  TGI: 15 µM
NCI-H522 lung
  GI50: 2.81 µM
  TGI: 8.9 µM
SN12C renal
  GI50: 1.7 µM
  TGI: 3.36 µM
UACC-257 melanoma
  GI50: 3.61 µM
  TGI: 15.2 µM
UO-31 renal
  GI50: 2.9 µM
  TGI: 11.9 µM
SK-MEL-5 melanoma
  GI50: 2.91 µM
  TGI: 11.1 µM
NCI/ADR-RES ovarian
  GI50: 3.25 µM
  TGI: 11.6 µM
M14 melanoma
  GI50: 2.6 µM
  TGI: 8.29 µM
786-0 renal
  GI50: 2.56 µM
  TGI: 6.3 µM
HT29 colon
  GI50: 1.9 µM
  TGI: 3.65 µM
OVCAR-5 ovarian
  GI50: 3.39 µM
  TGI: 15 µM
TK-10 renal
  GI50: 4.62 µM
  TGI: 16.6 µM
EKVX NSCLC
  GI50: 2.95 µM
  TGI: 10.9 µM
HOP-62 NSCLC
  GI50: 8.39 µM
  TGI: 23.6 µM
T-47D breast
  GI50: 3.02 µM
  TGI: 11.7 µM
RXF 393 renal
  GI50: 2.26 µM
  TGI: 7.51 µM
COLO 205 colon
  GI50: 2.38 µM
  TGI: 6.56 µM

## CN(C)CCCNC(=S)Nc1ccc(/C=C/c2ccc(Cl)cc2)cc1
UACC-62 melanoma
  GI50: 1.75 µM
  TGI: 3.17 µM
CAKI-1 renal
  GI50: 1.54 µM
  TGI: 2.96 µM
HL-60(TB) leukemia
  GI50: 1.67 µM
  TGI: 3.93 µM
MALME-3M melanoma
  GI50: 1.75 µM
  TGI: 3.14 µM
OVCAR-8 ovarian
  GI50: 1.98 µM
  TGI: 4.1 µM
ACHN renal
  GI50: 1.78 µM
  TGI: 3.19 µM
OVCAR-3 ovarian
  GI50: 1.44 µM
  TGI: 3.11 µM
OVCAR-4 ovarian
  GI50: 1.92 µM
  TGI: 4.35 µM
MDA-MB-468 breast
  GI50: 1.64 µM
  TGI: 3.07 µM
HOP-92 NSCLC
  GI50: 1.35 µM
  TGI: 2.99 µM
SK-MEL-28 melanoma
  GI50: 1.79 µM
  TGI: 3.2 µM
SR leukemia
  GI50: 1.94 µM
  TGI: 5.1 µM
MDA-MB-231 breast
  GI50: 1.62 µM
  TGI: 3.03 µM
NCI-H23 lung
  GI50: 2.02 µM
  TGI: 4.44 µM
CCRF-CEM leukemia
  GI50: 1.63 µM
  TGI: 3.43 µM
HCT-15 colon
  GI50: 1.53 µM
  TGI: 3.03 µM
NCI-H226 lung
  GI50: 8.41 µM
  TGI: 38.2 µM
NCI-H460 lung
  GI50: 1.54 µM
  TGI: 3.01 µM
HS 578T breast
  GI50: 1.86 µM
  TGI: 4.52 µM
RPMI-8226 leukemia
  GI50: 2.55 µM
  TGI: 7.33 µM
SW-620 colon
  GI50: 1.67 µM
  TGI: 3.14 µM
SF-539 CNS
  GI50: 1.68 µM
  TGI: 3.05 µM
LOX IMVI melanoma
  GI50: 1.64 µM
  TGI: 3.09 µM
SK-MEL-2 melanoma
  GI50: 1.87 µM
  TGI: 3.57 µM
KM12 colon
  GI50: 1.82 µM
  TGI: 3.4 µM
SK-OV-3 ovarian
  GI50: 2.03 µM
  TGI: 4.16 µM
DU-145 prostate
  GI50: 1.75 µM
  TGI: 3.33 µM
MDA-MB-435
  GI50: 1.58 µM
  TGI: 3.06 µM
HCC-2998 colon
  GI50: 1.64 µM
  TGI: 3.14 µM
PC-3 prostate
  GI50: 1.64 µM
  TGI: 3.24 µM
BT-549 breast
  GI50: 2.89 µM
  TGI: 8.87 µM
IGROV1 ovarian
  GI50: 1.78 µM
  TGI: 3.31 µM
SN12C renal
  GI50: 1.68 µM
  TGI: 3.13 µM
UACC-257 melanoma
  GI50: 1.64 µM
  TGI: 3.24 µM
UO-31 renal
  GI50: 1.58 µM
  TGI: 2.94 µM
SK-MEL-5 melanoma
  GI50: 1.72 µM
  TGI: 3.09 µM
M14 melanoma
  GI50: 1.77 µM
  TGI: 3.62 µM
786-0 renal
  GI50: 1.62 µM
  TGI: 3.36 µM
HT29 colon
  GI50: 2.14 µM
  TGI: 4.72 µM
OVCAR-5 ovarian
  GI50: 1.61 µM
  TGI: 3.09 µM
TK-10 renal
  GI50: 1.87 µM
  TGI: 3.56 µM
T-47D breast
  GI50: 1.88 µM
  TGI: 4.1 µM
COLO 205 colon
  GI50: 1.88 µM
  TGI: 3.64 µM
